Experimental data taken from publication PMC6273304, “Efficient Double Suzuki Cross-Coupling Reactions of 2,5-Dibromo-3-hexylthiophene: Anti-Tumor, Haemolytic, Anti-Thrombolytic and Biofilm Inhibition Studies” (Molecules, 2016).
Several values for one entry are separate records, joined by “and”; a condition that tells them apart may be missing. Equal values may be shown once.

Columns and labels:
4T1 cells = experiment: MTT assay, anti-tumor activity against 4T1 cells; format: cell-based; conditions: 72 h treatment
Source text: (§1) Metastasis is the major reason of morbidity and mortality in cancer disease. In breast cancer patients, several tissues involving liver, lung, bone, and lymph node are affected by tumor involvement. The anti-tumor activities of all newly-synthesized thiophene derivatives were screened for human breast cancer cell lines 4T1, MDA-MB-231, and MCF-7 using MTT (3-(4,5-dimethylthiazol-2-yl)-2,5-diphenyltetrazolium bromide) assay in vitro. Cisplatin was used as a standard anti-tumor drug in this assay. […] The highest activity of 3h might have been due to the presence of electron-donating methylthio group (-SMe) on aromatic phenyl ring.
(§2) In brief, 0.8 × 10^5 cells/mL were seeded in 96-well plates and were incubated in a humidified CO2 incubator overnight. The following day, serial dilution of the samples was performed with various concentration. The plates were left to incubate with the treatment for 72 h. After the designated time, 20 μL of MTT (5 mg/mL) was inserted into each of the wells and the cells were further incubated for an additional 4 h. Later, the media and the treatment were removed from all of the wells and 100 μL of DMSO was added. The absorbance plates were then read using a spectrophotometer (BioTek) at 570 nm.

MDA-MB-231 cells = experiment: MTT assay, anti-tumor activity against MDA-MB-231 cells; format: cell-based, human; conditions: 72 h treatment
Source text: as §1
The anti-tumor activity of all newly-synthesized compounds was also examined against MDA-MB-231 breast cancer cells. […] It is likely possible that the electron-withdrawing iodo groups (-I) attached with phenyl ring might have been affecting the cytotoxicity of MDA-MB-231 cells.
as §2

MCF-7 cells = experiment: MTT assay, anti-tumor activity against MCF-7 cells; format: cell-based, human
Source text: as §1
The anti-tumor activity of these compounds was also studied for MCF-7 breast cancer cell line.
as §2

human blood clots = experiment: Anti-thrombolytic activity (in vitro clot lysis); conditions: 100 μL sample, 90 min at 37 °C
Source text: Cerebral Venous Sinus Thrombosis (CVST) is a central nervous disorder, which is a common disease caused by thrombophilia and […]. This fatal disease has been treated by the application of intravenous heparin and warfarin drugs. Now a days, this disease is usually cured by thrombolytic drugs, such as urokinase and streptokinase, which are playing a significant effect in the cure of CVST [25]. In the present study, we have explored the potential of our newly synthesized thiophene derivatives for anti-thrombolytic activity by the procedure reported elsewhere. […] This highest value of % lysis achieved by 3g can be attributed to the electron-withdrawing fluorine and chlorine groups on the aromatic ring.
The anti-thrombolytic activity of all newly-synthesized thiophene derivatives was investigated by following the previously-reported method. In a typical procedure, the sterile eppendorfs were filled with fresh venous blood taken from the human volunteers. The eppendorf tubes, which contained human blood (500 μL), were placed for 45 min at 37 °C to allow for clot formation. Once the clots were formed, the known volumes (100 μL) of sample solutions (3a–i) were added in eppendorfs having no serum in the blood samples. Basically, the serum was removed from blood prior to the clot formation stage. After the addition of samples, the tubes were incubated again for 90 min at 37 °C. For each experiment, the compound Streptokinase was used as a positive control, while water was used as a negative control. The anti-thrombolytic activity of newly-synthesized products was determined at percentage.

Escherichia coli = experiment: Biofilm inhibition assay; format: cell-based; conditions: E. coli, 50 μM/mL, 24 h at 37 °C
Protocol: Pathogenic micro-organisms form a biofilm, which mainly causes morbidness and mortality. This biofilm consists of conglomerations of bacterial cells and secured by a polymeric substance created by itself. Several fatal infections are caused by biofilms and they are difficult to remove. The inhibition activities of all newly-synthesized thiophene derivatives (3a–i) against biofilm formation were assayed using the previously-reported method. The experimentally-determined biofilm inhibition values for all compounds are expressed in Table 3. A selected strain of Gram-negative bacteria (Escherichia coli) was used to determine the anti-bacterial activity of all new derivatives at concentration of 50 μM/mL. […] A likely possible cause of this high activity can be attributed to the electron-withdrawing substituents attached with the aromatic phenyl ring of 3d, which might have been playing a significant role for increasing the anti-bacterial activity of this compound against Gram-negative bacteria. We believe that our newly-developed thiophene-based compounds with high % inhibition values can be potentially used to control the formation of biofilms.
The newly-synthesized thiophene derivatives were assayed for their biofilm inhibition activity using the previously reported method. For these measurements, the solutions of the thiophene derivatives were prepared in ethyl acetate. In brief, about 100 μL of sample solutions (3a–i) and 100 μL nutrient broth (Oxoid, Hampshire, UK) along with bacterial suspension (20 μL) were placed on the wells of 96-well sterile culture plates. Rifampicin was used as a positive control, while nutrient broth was used as a negative control for these biofilm inhibition activity measurements. The plates were covered and incubated for 24 h at 37 °C. Each plate was washed three times by using 220 μL of phosphate-buffered solution. After washing, each plate was shaken strongly in order to remove the non-adherent bacteria. 220 μL of 99% methanol solution was used to fix the remaining bacteria from these plates, followed by the drying in hot oven. After drying, the plates were stained with […] of crystal violet with a concentration of […] for five minutes. The excess stain from these plates was removed simply by using tap water. About 220 µL glacial acetic acid (33% concentration) was used to remove the dye attached with the cells. Each well was examined for OD value with the help of the micro-plate reader (BioTek, Winooski, VT, USA) at 630 nm.

red blood cells (RBCs) = experiment: Haemolytic activity; format: cell-based; conditions: 30 min, pH 7.4
Source text: The newly-synthesized molecules (3a–i) were also examined for their hemolytic activity, following the method reported by Powell and co-workers. The standard drug Triton X-100 was employed as a reference in these measurements. […] Ding et al. reported that chloro group-containing molecules display facile haemolytic activity as compared with those compounds having a methyl group substitution on the ring.
The hemolytic activity of newly synthesized thiophene derivatives was examined by following the previously-reported method. For these measurements, the solutions of the thiophene derivatives were prepared in ethyl acetate. In brief, about 3 mL of newly-obtained heparinized blood was taken in 15 mL sterile Falcon tube, which was later centrifuged for 5 min at 850 rpm. The supernatant was removed and washed three times and was later placed at room temperature for 30 min. In order to wash the thick pellet, 5 mL of ice-cold (4 °C) phosphate-buffered saline (PBS) having pH 7.4 was employed. The same PBS buffer (20 mL) was used to maintain the cells over longer periods of time. The erythrocytes present in cells were measured and diluted with PBS buffer. Approximately 180 µL of this suspension of erythrocytes was taken along with 20 µL of sample solution (3a–i) in eppendorfs. These eppendorfs were incubated thermally at human body temperature for 30 min, followed by centrifuging at 1310 rpm again for 5 min. After significant centrifugation, the supernatant was removed and diluted with phosphate-buffered saline (900 µL) and was later placed on ice. Each sample solution (200 µL) was kept in 96-well culture plates. For each measurement, phosphate-buffered saline and 0.1% Triton X-100 were employed as negative and positive control, respectively. A quant instrument was used to observe the absorbance of all sample solutions at 576 nm.

[1] = Homo sapiens, MCF7, 72 h treatment

In the case of `CCCCCCc1cc(-c2cc(C)cc(C)c2)sc1-c1cc(C)cc(C)c1` [Compound 3b, 2,5-Bis(3,5-dimethylphenyl)-3-hexylthiophene], the IC50 (4T1 cells; 4T1, 72 h) is reported as 30 ± 0.81 µM, the IC50 (MDA-MB-231 cells; Homo sapiens) is reported as 32.2 ± 2.73 µM and the IC50 (MCF-7 cells; [1]) is reported as 33.8 ± 0.29 µM. The “% Lysis (clot lysis, anti-thrombolytic activity)” value (human blood clots) was 25.32 ± 0.092%, the inhibition at 50 µM (Escherichia coli) was 59.48 ± 0.073% and the “% Lysis of RBC” value (red blood cells (RBCs)) was 4.54 ± 0.014%.

With `N.N.[Cl][Pt][Cl]` [Cisplatin, reference compound] the IC50 (4T1 cells) was 21.5 µM, the IC50 (MDA-MB-231 cells) was 29 µM and 29.1 µM and the IC50 (MCF-7 cells; 72 h treatment) was 48 µM and 48.3 µM.

`CCCCCCc1cc(-c2ccc(Cl)cc2)sc1-c1ccc(Cl)cc1` [Compound 3d, 2,5-Bis(4-chlorophenyl)-3-hexylthiophene] showed an IC50 (4T1 cells; 4T1, 72 h) of 22.8 ± 0.04 µM, an IC50 (MDA-MB-231 cells; Homo sapiens) of 24.8 ± 0.56 µM and an IC50 (MCF-7 cells; [1]) of 27.5 ± 0.67 µM. The “% Lysis (clot lysis, anti-thrombolytic activity)” value (human blood clots) was 2.04 ± 0.091%, the inhibition at 50 µM (Escherichia coli) was 78.85 ± 0.057% and the “% Lysis of RBC” value (red blood cells (RBCs)) was 6.66 ± 0.057%.

`CCCCCCc1cc(-c2ccc(C)cc2)sc1-c1ccc(C)cc1` [Compound 3a, 2,5-Bis(4-methylphenyl)-3-hexylthiophene] was tested, and the IC50 (4T1 cells; 4T1, 72 h) was 30.5 ± 0.08 µM, the IC50 (MDA-MB-231 cells; Homo sapiens) was 36.8 ± 0.21 µM and the IC50 (MCF-7 cells; [1]) was 26.2 ± 0.7 µM. The “% Lysis (clot lysis, anti-thrombolytic activity)” value (human blood clots) was 16.25 ± 0.028% and the inhibition at 50 µM (Escherichia coli) was 62.5 ± 0.038%.

For `CCCCCCc1cc(-c2ccc(OC)cc2)sc1-c1ccc(OC)cc1` [Compound 3c, 3-Hexyl-2,5-bis(4-methoxyphenyl)thiophene], the IC50 (4T1 cells; 4T1, 72 h) was 29.5 ± 4.3 µM, the IC50 (MDA-MB-231 cells; Homo sapiens) was 40 ± 0.41 µM and the IC50 (MCF-7 cells; [1]) was 35.7 ± 0.09 µM. The “% Lysis (clot lysis, anti-thrombolytic activity)” value (human blood clots) was 41.12% and 41.12 ± 0.035%, the inhibition at 50 µM (Escherichia coli) was 73.27 ± 0.023% and the “% Lysis of RBC” value (red blood cells (RBCs)) was 5.80 ± 0.045%.

`CCCCCCc1cc(-c2ccc(SC)cc2)sc1-c1ccc(SC)cc1` [Compound 3h, 3-Hexyl-2,5-bis(4-(methylthio)phenyl)thiophene] was tested, and the IC50 (4T1 cells; 4T1, 72 h) was 16 µM, the IC50 (4T1 cells) was 16.1 ± 0.09 µM and the IC50 (MDA-MB-231 cells; Homo sapiens) was 29.2 ± 0.04 µM. The IC50 (MCF-7 cells; [1]) was 35.1 ± 3.8 µM, the “% Lysis (clot lysis, anti-thrombolytic activity)” value (human blood clots) was 0.27 ± 0.021% and the inhibition at 50 µM (Escherichia coli) was 27.12 ± 0.039%.

Compound `CCCCCCc1cc(-c2ccc(I)cc2)sc1-c1ccc(I)cc1` [Compound 3e, 3-Hexyl-2,5-bis(4-iodophenyl)thiophene] has an IC50 (4T1 cells; 4T1, 72 h) of 21.5 ± 3.71 µM, an IC50 (MDA-MB-231 cells; Homo sapiens) of 22.9 ± 3.8 µM and an IC50 (MCF-7 cells; [1]) of 91.4 ± 0.59 µM. The “% Lysis (clot lysis, anti-thrombolytic activity)” value (human blood clots) was 32.42 ± 0.046%, the inhibition at 50 µM (Escherichia coli) was 73.8 ± 0.032% and the “% Lysis of RBC” value (red blood cells (RBCs)) was 3.62 ± 0.024%.

`CCCCCCc1cc(-c2ccc(F)c(Cl)c2)sc1-c1ccc(F)c(Cl)c1` [Compound 3g, 2,5-Bis(3-chloro-4-fluorophenyl)-3-hexylthiophene] showed an IC50 (4T1 cells; 4T1, 72 h) of 22 ± 0.57 µM, an IC50 (MDA-MB-231 cells; Homo sapiens) of 26.2 ± 0.28 µM and an IC50 (MCF-7 cells; [1]) of 44 ± 0.17 µM. For the same compound, the “% Lysis (clot lysis, anti-thrombolytic activity)” value (human blood clots) was 53.12% and 53.12 ± 0.063%, the inhibition at 50 µM (Escherichia coli) was 75.53 ± 0.041% and the “% Lysis of RBC” value (red blood cells (RBCs)) was 15.57 ± 0.034%.

`CCCCCCc1cc(-c2cccc(C(C)=O)c2)sc1-c1cccc(C(C)=O)c1` [Compound 3i, 2,5-Bis(3-acetylphenyl)-3-hexylthiophene] gave an IC50 (4T1 cells; 4T1, 72 h) of 23.2 ± 0.08 µM, an IC50 (MDA-MB-231 cells; Homo sapiens) of 36.8 ± 0.82 µM and an IC50 (MCF-7 cells; [1]) of 36.8 ± 0.03 µM. For the same compound, the “% Lysis (clot lysis, anti-thrombolytic activity)” value (human blood clots) was 1.84 ± 0.083% and the inhibition at 50 µM (Escherichia coli) was 76.86 ± 0.083%.

With Streptokinase [reference compound] the “% Lysis (clot lysis, anti-thrombolytic activity)” value (human blood clots) was 100%.

Compound `CCCCCCc1cc(-c2cc(F)cc(F)c2)sc1-c1cc(F)cc(F)c1` [Compound 3f, 2,5-Bis(3,5-difluorophenyl)-3-hexylthiophene] has an IC50 (4T1 cells; 4T1, 72 h) of 31.5 ± 1.1 µM, an IC50 (MDA-MB-231 cells; Homo sapiens) of 28.1 ± 0.72 µM and an IC50 (MCF-7 cells; [1]) of 42.8 ± 2.87 µM. For the same compound, the “% Lysis (clot lysis, anti-thrombolytic activity)” value (human blood clots) was 12.34 ± 0.073% and the inhibition at 50 µM (Escherichia coli) was 69.68 ± 0.049%.
